Data from US12679843B2, “Pyrrolopyrimidine amines as complement inhibitors” (BioCryst Pharmaceuticals, Inc., priority 2020, dated 2026).

biological target: Factor D (Homo sapiens, UniProt P00746); assay: Factor D esterolytic assay (Z-Lys-SBzl thioester substrate, DTNB, 405 nm); format: biochemical; details: substrate Z-Lys-SBzl 1.29 mM, 100 mM HEPES, 500 mM NaCl, pH 7.5, 10% DMSO, tested a minimum of three times
Summary of the method: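 Run in pH 7.5 HEPES (100 mM) with 500 mM NaCl and 10% DMSO, with compound preincubated at room temperature or not before adding 1.29 mM Z-Lys-SBzl. Free thiol released by Factor D reacts with DTNB, and rate is followed at 405 nm minus 690 nm over 600 s. IC50 derives from rate-based inhibition, minimum three replicates.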

Sequence of Factor D (P00746 26-253): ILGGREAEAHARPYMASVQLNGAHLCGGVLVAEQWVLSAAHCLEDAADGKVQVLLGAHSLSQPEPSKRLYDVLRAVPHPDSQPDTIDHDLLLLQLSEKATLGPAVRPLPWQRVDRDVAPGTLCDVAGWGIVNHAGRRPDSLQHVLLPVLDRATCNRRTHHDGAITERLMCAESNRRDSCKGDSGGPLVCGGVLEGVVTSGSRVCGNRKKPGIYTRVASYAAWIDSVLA

| Structure (SMILES) | IC50 [nM] |
| --- | --- |
| Nc1ncnc2c1ncn2CC(=O)N1[C@H](C(=O)NCc2cccc(Cl)c2F)C[C@@H]2C[C@@H]21 [Compound 109e, (1S,3S,5S)-2-(2-(6-amino-9H-purin-9-yl)acetyl)-N-(3-chloro-2-fluorobenzyl)-2-azabicyclo[3.1.0]hexane-3-carboxamide] | 100 to 1000 |
| Nc1ncnc2c1nc(Br)n2CC(=O)N1C[C@H](F)C[C@H]1C(=O)NCc1cccc(Cl)c1F [Compound 110d, (2S,4R)-1-(2-(6-amino-8-bromo-9H-purin-9-yl)acetyl)-N-(3-chloro-2-fluorobenzyl)-4-fluoropyrrolidine-2-carboxamide] | > 1000 |
| CC(C)=C(F)CNC(=O)[C@@H]1C[C@H]2C[C@H]2N1C(=O)Cn1cnc2c(N)ncnc21 [Compound 111b, (1R,3S,5R)-2-(2-(6-amino-9H-purin-9-yl)acetyl)-N-(2-fluoro-3-methylbut-2-en-1-yl)-2-azabicyclo[3.1.0]hexane-3-carboxamide] | 100 to 1000 |
| Nc1ncnc2c1ncn2CC(=O)N1[C@@H]2C[C@@H]2C[C@H]1C(=O)Nc1cncc(Br)n1 [Compound 112b, (1R,3S,5R)-2-(2-(6-amino-9H-purin-9-yl)acetyl)-N-(6-bromopyrazin-2-yl)-2-azabicyclo[3.1.0]hexane-3-carboxamide] | < 100 |
| Cc1ccc(Br)nc1NC(=O)[C@@H]1C[C@@]2(C)C[C@H]2N1C(=O)Cn1cnc2c(N)ncnc21 [Compound 113a, (1R,3S,5R)-2-(2-(6-amino-9H-purin-9-yl)acetyl)-N-(6-bromo-3-methylpyridin-2-yl)-5-methyl-2-azabicyclo[3.1.0]hexane-3-carboxamide] | 100 to 1000 |
| Nc1ncnc2c1c(-c1cccnc1)cn2CC(=O)N1C[C@H](F)C[C@H]1C(=O)NCc1cccc(Cl)c1F [Compound 114f, (2S,4R)-1-(2-(4-amino-5-(pyridin-3-yl)-7H-pyrrolo[2,3-d]pyrimidin-7-yl)acetyl)-N-(3-chloro-2-fluorobenzyl)-4-fluoropyrrolidine-2-carboxamide] | < 100 |
| NCc1cccc(-c2cn(CC(=O)N3C[C@H](F)C[C@H]3C(=O)NCc3cccc(Cl)c3F)c3ncnc(N)c23)c1 [Compound 115e, (2S,4R)-1-(2-(4-amino-5-(3-(aminomethyl)phenyl)-7H-pyrrolo[2,3-d]pyrimidin-7-yl)acetyl)-N-(3-chloro-2-fluorobenzyl)-4-fluoropyrrolidine-2-carboxamide] | 100 to 1000 |
| Nc1ncnc2c1c(Br)cn2CC(=O)N1C[C@H](F)C[C@H]1C(=O)NCc1cccc(Cl)c1F [Compound 116b, (2S,4R)-1-(2-(4-amino-5-bromo-7H-pyrrolo[2,3-d]pyrimidin-7-yl)acetyl)-N-(3-chloro-2-fluorobenzyl)-4-fluoropyrrolidine-2-carboxamide] | 100 to 1000 |
| Cc1ncc(-c2cn(CC(=O)N3C[C@H](F)C[C@H]3C(=O)NCc3cccc(Cl)c3F)c3ncnc(N)c23)cn1 [Compound 117d, (2S,4R)-1-(2-(4-amino-5-(2-methylpyrimidin-5-yl)-7H-pyrrolo[2,3-d]pyrimidin-7-yl)acetyl)-N-(3-chloro-2-fluorobenzyl)-4-fluoropyrrolidine-2-carboxamide] | 100 to 1000 |
| Cc1ncc(-c2cn(CC(=O)N3C[C@H](F)C[C@H]3C(=O)Nc3nc(Br)ccc3C)c3ncnc(N)c23)cn1 [Compound 118a, (2S,4R)-1-(2-(4-amino-5-(2-methylpyrimidin-5-yl)-7H-pyrrolo[2,3-d]pyrimidin-7-yl)acetyl)-N-(6-bromo-3-methylpyridin-2-yl)-4-fluoropyrrolidine-2-carboxamide] | > 1000 |
| Nc1ncnc2c1ncn2CC(=O)N1CCC[C@H]1C(=O)NCc1cccc(Cl)c1F [Compound 119a, (S)-1-(2-(6-amino-9H-purin-9-yl)acetyl)-N-(3-chloro-2-fluorobenzyl)pyrrolidine-2-carboxamide] | 100 to 1000 |
| Nc1ncnc2c1ncn2CC(=O)N1CC2(CC2)C[C@H]1C(=O)NCc1cccc(Cl)c1F [Compound 120c, (S)-5-(2-(6-amino-9H-purin-9-yl)acetyl)-N-(3-chloro-2-fluorobenzyl)-5-azaspiro[2.4]heptane-6-carboxamide] | > 1000 |
| C[C@@H]1C[C@@H](C(=O)NCc2cccc(Cl)c2F)N(C(=O)Cn2cnc3c(N)ncnc32)C1 [Compound 121d, (2S,4R)-1-(2-(6-amino-9H-purin-9-yl)acetyl)-N-(3-chloro-2-fluorobenzyl)-4-methylpyrrolidine-2-carboxamide] | > 1000 |
| C[C@@]1(F)C[C@@H](C(=O)NCc2cccc(Cl)c2F)N(C(=O)Cn2cnc3c(N)ncnc32)C1 [Compound 122c, (2S,4R)-1-(2-(6-amino-9H-purin-9-yl)acetyl)-N-(3-chloro-2-fluorobenzyl)-4-fluoro-4-methylpyrrolidine-2-carboxamide] | 100 to 1000 |
| NCCNc1ncnc2c1ncn2CC(=O)N1C[C@H](F)C[C@H]1C(=O)NCc1cccc(Cl)c1F [Compound 123g, (2S,4R)-1-(2-(6-((2-aminoethyl)amino)-9H-purin-9-yl)acetyl)-N-(3-chloro-2-fluorobenzyl)-4-fluoropyrrolidine-2-carboxamide] | > 1000 |
| Nc1ncnc2c1ncn2CC(=O)N1[C@@H]2CC[C@@H](C2)[C@H]1C(=O)NCc1cccc(Cl)c1F [Compound 124b, (1R,3S,4S)-2-(2-(6-amino-9H-purin-9-yl)acetyl)-N-(3-chloro-2-fluorobenzyl)-2-azabicyclo[2.2.1]heptane-3-carboxamide] | > 1000 |
| Nc1ncnc2c1c(F)cn2CC(=O)N1C[C@H](F)C[C@H]1C(=O)NCc1cccc(Cl)c1F [Compound 125d, (2S,4R)-1-(2-(4-amino-5-fluoro-7H-pyrrolo[2,3-d]pyrimidin-7-yl)acetyl)-N-(3-chloro-2-fluorobenzyl)-4-fluoropyrrolidine-2-carboxamide] | 100 to 1000 |
| Nc1ncnc2c1c(-c1c[nH]c3ccccc13)cn2CC(=O)N1C[C@H](F)C[C@H]1C(=O)NCc1cccc(Cl)c1F [Compound 126f, (2S,4R)-1-(2-(4-amino-5-(1H-indol-3-yl)-7H-pyrrolo[2,3-d]pyrimidin-7-yl)acetyl)-N-(3-chloro-2-fluorobenzyl)-4-fluoropyrrolidine-2-carboxamide] | 100 to 1000 |
| COC(=O)c1cnc2c(ccn2CC(=O)N2[C@@H]3C[C@@H]3C[C@H]2C(=O)Nc2cccc(Br)n2)c1 [Compound 127d, methyl 1-(2-((1R,3S,5R)-3-((6-bromopyridin-2-yl)carbamoyl)-2-azabicyclo[3.1.0]hexan-2-yl)-2-oxoethyl)-1H-pyrrolo[2,3-b]pyridine-5-carboxylate] | > 1000 |
| O=C(O)c1cnc2c(ccn2CC(=O)N2[C@@H]3C[C@@H]3C[C@H]2C(=O)Nc2cccc(Br)n2)c1 [Compound 128a, 1-(2-((1R,3S,5R)-3-((6-bromopyridin-2-yl)carbamoyl)-2-azabicyclo[3.1.0]hexan-2-yl)-2-oxoethyl)-1H-pyrrolo[2,3-b]pyridine-5-carboxylic acid] | > 1000 |
| Nc1cn(CC(=O)N2[C@@H]3C[C@@H]3C[C@H]2C(=O)Nc2cccc(Br)n2)c2ncncc12 [Compound 129f, (1R,3S,5R)-2-(2-(5-amino-7H-pyrrolo[2,3-d]pyrimidin-7-yl)acetyl)-N-(6-bromopyridin-2-yl)-2-azabicyclo[3.1.0]hexane-3-carboxamide] | 100 to 1000 |
| N#Cc1cn(CC(=O)N2C[C@H](F)C[C@H]2C(=O)NCc2cccc(Cl)c2F)c2ncnc(N)c12 [Compound 130e, (2S,4R)-1-(2-(4-amino-5-cyano-7H-pyrrolo[2,3-d]pyrimidin-7-yl)acetyl)-N-(3-chloro-2-fluorobenzyl)-4-fluoropyrrolidine-2-carboxamide] | 100 to 1000 |
| Nc1ccnc2c1ccn2CC(=O)N1C[C@H](F)C[C@H]1C(=O)NCc1cccc(Cl)c1F [Compound 131e, (2S,4R)-1-(2-(4-amino-1H-pyrrolo[2,3-b]pyridin-1-yl)acetyl)-N-(3-chloro-2-fluorobenzyl)-4-fluoropyrrolidine-2-carboxamide] | 100 to 1000 |
| Cc1nc(N)c2ccn(CC(=O)N3C[C@H](F)C[C@H]3C(=O)NCc3cccc(Cl)c3F)c2n1 [Compound 132d, (2S,4R)-1-(2-(4-amino-2-methyl-7H-pyrrolo[2,3-d]pyrimidin-7-yl)acetyl)-N-(3-chloro-2-fluorobenzyl)-4-fluoropyrrolidine-2-carboxamide] | > 1000 |
| Nc1ncnc2c1c(-c1cc3ccccc3[nH]1)cn2CC(=O)N1C[C@H](F)C[C@H]1C(=O)NCc1cccc(Cl)c1F [Compound 133b, (2S,4R)-1-(2-(4-amino-5-(1H-indol-2-yl)-7H-pyrrolo[2,3-d]pyrimidin-7-yl)acetyl)-N-(3-chloro-2-fluorobenzyl)-4-fluoropyrrolidine-2-carboxamide] | < 100 |
| Nc1ncnc2c1c(-c1cccc3cc[nH]c13)cn2CC(=O)N1C[C@H](F)C[C@H]1C(=O)NCc1cccc(Cl)c1F [Compound 134b, (2S,4R)-1-(2-(4-amino-5-(1H-indol-7-yl)-7H-pyrrolo[2,3-d]pyrimidin-7-yl)acetyl)-N-(3-chloro-2-fluorobenzyl)-4-fluoropyrrolidine-2-carboxamide] | < 100 |
| Nc1ncnc2c1c(-c1ccccc1)cn2CC(=O)N1C[C@H](F)C[C@H]1C(=O)NCc1cccc(Cl)c1F [Compound 135a, (2S,4R)-1-(2-(4-amino-5-phenyl-7H-pyrrolo[2,3-d]pyrimidin-7-yl)acetyl)-N-(3-chloro-2-fluorobenzyl)-4-fluoropyrrolidine-2-carboxamide] | 100 to 1000 |
| Nc1ncnc2c1c(-c1ccccc1Cl)cn2CC(=O)N1C[C@H](F)C[C@H]1C(=O)NCc1cccc(Cl)c1F [Compound 136a, (2S,4R)-1-(2-(4-amino-5-(2-chlorophenyl)-7H-pyrrolo[2,3-d]pyrimidin-7-yl)acetyl)-N-(3-chloro-2-fluorobenzyl)-4-fluoropyrrolidine-2-carboxamide] | > 1000 |
